Source: patent publication US20120165306A1, “PYRAZINYLPYRIDINES USEFUL FOR THE TREATMENT OF PROLIFERATIVE DISEASES” (priority 2009, published 2012)

Each compound was assayed against Cdk9/cyclinT1 (Homo sapiens, UniProt P50750) (assay: Cdk9/cyclinT1 kinase assay (IMAP or Alpha Screen protocol)).
Cdk9/cyclinT1, sequence (P50750 whole entry): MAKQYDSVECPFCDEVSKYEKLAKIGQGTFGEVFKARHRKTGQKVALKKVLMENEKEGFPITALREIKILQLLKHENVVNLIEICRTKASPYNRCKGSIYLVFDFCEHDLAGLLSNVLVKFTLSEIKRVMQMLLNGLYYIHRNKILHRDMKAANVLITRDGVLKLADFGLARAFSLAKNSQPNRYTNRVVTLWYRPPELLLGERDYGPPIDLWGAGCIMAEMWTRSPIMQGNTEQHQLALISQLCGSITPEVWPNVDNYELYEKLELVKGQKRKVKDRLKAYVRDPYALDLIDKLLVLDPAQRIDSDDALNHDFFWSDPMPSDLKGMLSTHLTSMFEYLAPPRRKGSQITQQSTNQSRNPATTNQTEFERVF
Cdk9/cyclinT1, sequence (O60563 whole entry partner): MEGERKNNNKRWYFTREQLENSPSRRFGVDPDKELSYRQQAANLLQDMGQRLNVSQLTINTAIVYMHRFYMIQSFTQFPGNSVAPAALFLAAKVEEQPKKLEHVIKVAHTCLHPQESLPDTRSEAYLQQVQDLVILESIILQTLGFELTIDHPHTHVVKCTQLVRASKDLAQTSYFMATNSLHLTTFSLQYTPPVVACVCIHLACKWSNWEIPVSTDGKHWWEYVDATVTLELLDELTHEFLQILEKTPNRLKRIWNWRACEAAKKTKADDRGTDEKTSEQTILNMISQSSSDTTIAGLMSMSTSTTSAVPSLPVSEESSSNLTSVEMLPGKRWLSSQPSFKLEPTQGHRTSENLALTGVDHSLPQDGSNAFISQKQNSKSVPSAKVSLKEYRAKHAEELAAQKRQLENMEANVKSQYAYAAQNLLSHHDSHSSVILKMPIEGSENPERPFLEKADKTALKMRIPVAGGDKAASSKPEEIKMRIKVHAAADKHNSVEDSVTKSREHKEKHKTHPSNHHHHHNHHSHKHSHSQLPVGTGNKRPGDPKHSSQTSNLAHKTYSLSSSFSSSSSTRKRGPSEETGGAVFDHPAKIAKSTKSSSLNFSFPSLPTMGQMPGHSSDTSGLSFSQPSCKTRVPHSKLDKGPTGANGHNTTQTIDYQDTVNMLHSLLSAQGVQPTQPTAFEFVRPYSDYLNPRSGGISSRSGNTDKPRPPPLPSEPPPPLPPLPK

| Structure (SMILES) | IC50 |
| --- | --- |
| O=C(Nc1cc(-c2cncc(NCC3CCOCC3)n2)c(Cl)cn1)C1CCCOC1 (stereo not shown) [Example 23, Tetrahydro-pyran-3-carboxylic acid (5-chloro-4-{6-[(tetrahydro-pyran-4-ylmethyl)-amino]-pyrazin-2-yl}-pyridin-2-yl)-amide] | 9 nM |
| O=C(Nc1cc(-c2cncc(NCC3CCOCC3)n2)c(Cl)cn1)C1CNCCO1 (stereo not shown) [Example 21, Morpholine-2-carboxylic acid (5-chloro-4-{6-[(tetrahydro-pyran-4-ylmethyl)-amino]-pyrazin-2-yl}-pyridin-2-yl)-amide] | 12.8 nM |
| CC(=O)Nc1cc(-c2cncc(NCC3CCOCC3)n2)c(Cl)cn1 [Example 11, N-(5-Chloro-4-{6-[(tetrahydro-pyran-4-ylmethyl)-amino]-pyrazin-2-yl}-pyridin-2-yl)-acetamide] | 29 nM |
| Cc1ncc(NCC2CCOCC2)nc1-c1cc(NC(=O)[C@@H]2CCCNC2)ncc1Cl [Example 24, (R)-Piperidine-3-carboxylic acid (5-chloro-4-{3-methyl-6-[(tetrahydro-pyran-4-ylmethyl)-amino]-pyrazin-2-yl}-pyridin-2-yl)-amide] | < 8 nM |
| O=C(Nc1cc(-c2cncc(NCC3CCOCC3)n2)c(Cl)cn1)[C@@H]1CCNC1 [Example 41, (R)-Pyrrolidine-3-carboxylic acid (5-chloro-4-{6-[(tetrahydro-pyran-4-ylmethyl)-amino]-pyrazin-2-yl}-pyridin-2-yl)-amide] | < 8 nM |
| O=C(Nc1cc(-c2cncc(NC[C@H]3CCCO3)n2)c(Cl)cn1)[C@@H]1CCCNC1 [Example 31, (R)-Piperidine-3-carboxylic acid [5-chloro-4-(6-{[(R)-1-(tetrahydro-furan-2-yl)methyl]-amino}-pyrazin-2-yl)-pyridin-2-yl]-amide] | 19 nM |
| N[C@H]1CC[C@@H](C(=O)Nc2cc(-c3cncc(NCC4CCOCC4)n3)c(Cl)cn2)C1 [Example 43, (1R,3S)-3-Amino-cyclopentanecarboxylic acid (5-chloro-4-{6-[(tetrahydro-pyran-4-ylmethyl)-amino]-pyrazin-2-yl}-pyridin-2-yl)-amide] | < 8 nM |

Other lines, results leading:

| IC50 | Structure (SMILES) |
| --- | --- |
| 73 nM | Cc1cnc(NC(=O)C(C)C)cc1-c1cncc(NCC2CCOCC2)n1 [Example 60, N-(5-Methyl-4-{6-[(tetrahydro-pyran-4-ylmethyl)-amino]-pyrazin-2-yl}-pyridin-2-yl)-isobutyramide] |
| < 8 nM | CS(=O)(=O)N[C@H]1CC[C@@H](C(=O)Nc2cc(-c3cncc(NCC4CCOCC4)n3)c(Cl)cn2)C1 [Example 51, (1R,3S)-3-Methanesulfonylamino-cyclopentanecarboxylic acid (5-chloro-4-{6-[(tetrahydro-pyran-4-ylmethyl)-amino]-pyrazin-2-yl}-pyridin-2-yl)-amide] |
| < 8 nM | O=C(Cc1cccnc1)Nc1cc(-c2cncc(NCC3CCOCC3)n2)c(Cl)cn1 [Example 57, N-(5-Chloro-4-{6-[(tetrahydro-pyran-4-ylmethyl)-amino]-pyrazin-2-yl}-pyridin-2-yl)-2-pyridin-3-yl-acetamide] |
| 1010 nM | O=C(Nc1cc(-c2cncc(NCC3CCOCC3)n2)c(C(F)(F)F)cn1)C1CCOCC1 [Example 59, Tetrahydro-pyran-4-carboxylic acid (4-{6-[(tetrahydro-pyran-4-ylmethyl)-amino]-pyrazin-2-yl}-5-trifluoromethyl-pyridin-2-yl)-amide] |
| < 8 nM | COC(=O)N[C@H]1CC[C@@H](C(=O)Nc2cc(-c3cncc(NCC4CCOCC4)n3)c(Cl)cn2)C1 [Example 54, [(1S,3R)-3-(5-Chloro-4-{6-[(tetrahydro-pyran-4-ylmethyl)-amino]-pyrazin-2-yl}-pyridin-2-ylcarbamoyl)-cyclopentyl]-carbamic acid methyl ester] |
| < 8 nM | CCS(=O)(=O)N1CCC[C@H](C(=O)Nc2cc(-c3cncc(NCC4CCOCC4)n3)c(Cl)cn2)C1 [Example 45, (S)-1-Ethanesulfonyl-piperidine-3-carboxylic acid (5-chloro-4-{6-[(tetrahydro-pyran-4-ylmethyl)-amino]-pyrazin-2-yl}-pyridin-2-yl)-amide] |
